The values that follow come from ChEMBL document CHEMBL5500343, “Activity refinement of aryl amino acetamides that target the P. falciparum STAR-related lipid transfer 1 protein” (Eur J Med Chem, 2024).

Molecules are shown by their SMILES. ≈ marks a conversion by molar mass, not a printed value. Calls of active or inactive are those of the source. The calls are words filed in the database; no cut-off is given here.

The subject of data set [1] is Plasmodium falciparum. Briefly: Antimalarial activity against DSM-265 resistant Plasmodium falciparum Dd2 harboring DHODH C276F mutant assessed as reduction in parasite growth incubated for 72 hrs by [3H]-hypoxanthine incorporation assay. Type of data set: functional, organism-based.
Data set [2] has as its system Plasmodium falciparum. Briefly: Antimalarial activity against asexual blood stage Plasmodium falciparum Dd2-F6 assessed as minimum inoculum of resistance at 5 times IC50 measured for 35 days by SYBR Green I dye based flow cytometry. The settings on record: time 35 day. Type of data set: functional.
For data set [3], the system named is Plasmodium falciparum. As to the kind of experiment: Antimalarial activity against Plasmodium falciparum Dd2 assessed as reduction in parasite growth incubated for 72 hrs by [3H]-hypoxanthine incorporation assay. Type of data set: functional, organism-based.
Data set [4] can be described thus: Toxicity in Swiss mouse at 50 mg/kg,po administration measured upto 24 hrs by LC-MS/MS analysis. Type of data set: organism-based. Conditions: in vivo.
The nature of data set [5]: Apparent half life in Swiss mouse at 50 mg/kg,po administration measured for 4 to 24 hrs by LC-MS/MS analysis. Type of data set: ADME, organism-based. Conditions: in vivo, time 4-24 hrs, read-out: t1/2(app) (converted).
Data set [6] can be described thus: Intrinsic clearance in human liver microsomes at 1 uM incubated upto 60 mins in presence of NADPH by LC-MS/MS analysis. Type of data set: ADME, Microsome. The settings on record: read-out: CLH.
Data set [7] is described as follows: Toxicity in mouse infected with Plasmodium berghei ANKA assessed as change in body weight at 50 mg/kg,po bid administrated for 72 hrs and measured after 24 hrs post last dose. Type of data set: organism-based. Conditions: in vivo.
In data set [8] the test system is Plasmodium berghei. Briefly: Antimalarial activity against Plasmodium berghei ANKA infected in mouse assessed as reduction of parasitaemia at 50 mg/kg,po bid administrated for 72 hrs and measured after 24 hrs post last dose by Giemsa staining based microscopic analysis. Type of data set: functional, organism-based. The settings on record: time 96.0 hrs.
In another data set the test system is HepG2. Briefly: Cytotoxicity against human HepG2 cells assessed as reduction in cell viability incubated for 48 hrs by Cell Titer-Glo assay. Type of data set: functional, cell-based. The settings on record: HepG2, 48 h. In general terms: In ATP-based viability assays light output follows the ATP content of the culture.
Data set [9] deals with Plasmodium falciparum. Briefly: Binding affinity to recombinant Plasmodium falciparum START1 assessed as change in enthalpy at 10 uM by isothermal titration calorimetry.
Data set [10] relates to Plasmodium falciparum. As to the kind of experiment: Antimalarial activity against asexual blood stage Plasmodium falciparum 3D7 assessed as reduction in parasite growth incubated for 72 hrs by LDH assay. Type of data set: functional, organism-based. The settings on record: 3D7, 72 h.
Data set [11] in a line: Drug concentration in Swiss mouse plasma at 50 mg/kg,po administration measured upto 24 hrs by LC-MS/MS analysis. The settings on record: in vivo. Type of data set: ADME, organism-based.
Data set [12] is described as follows: Drug concentration in Swiss mouse plasma at 50 mg/kg,po administration measured after 15 mins by LC-MS/MS analysis. Type of data set: ADME, organism-based.
A short description of data set [13]: Binding affinity to recombinant Plasmodium falciparum START1 assessed as dissociation constant by isothermal titration calorimetry.
Data set [14] has as its system Plasmodium falciparum. As to the kind of experiment: Binding affinity to recombinant Plasmodium falciparum START1 assessed as change in entropy at 10 uM by isothermal titration calorimetry. Background: In ITC the heat of successive injections is recorded.
Data set [15] is described as follows: Drug concentration in Swiss mouse plasma at 50 mg/kg,po administration measured after 12 hrs by LC-MS/MS analysis. Type of data set: ADME, organism-based. Conditions: in vivo.
The nature of data set [16]: Intrinsic clearance in rat hepatocyte measured per 10^6 cells at 1 uM incubated upto 90 mins by LC-MS/MS analysis. The settings on record: rat hepatocytes, read-out: CLH. Type of data set: ADME, cell-based.
Data set [17] can be described thus: Lipophilicity, LogD of compound in 1-Octanol and PBS at pH 7.4 at 7.5 uM incubated for 2 hrs shake flask method based LC-MS/MS analysis. Type of data set: physicochemical. Conditions: 1-octanol/PBS.
Data set [18] can be described thus: Kinetic aqueous solubility of the compound in PBS at pH 7.4 incubated for 2 hr under shaking condition by shake flask based UV reader plate analysis. Type of data set: physicochemical. The settings on record: read-out: Kinetic_solubility.
Data set [19] deals with Plasmodium falciparum. As to the kind of experiment: Antimalarial activity against chloroquine and mefloquine resistant Plasmodium falciparum 7G8 assessed as reduction in parasite growth incubated for 72 hrs by [3H]-hypoxanthine incorporation assay. Type of data set: functional, organism-based.
The test system of data set [20] is Plasmodium falciparum. Briefly: Antimalarial activity against asexual blood stage Plasmodium falciparum Dd2-B2 assessed as reduction in recrudescence measured for 60 days by flow cytometry. Type of data set: functional, organism-based. The settings on record: time 60.0 day. On the technique in general: Flow cytometry measures light scatter and fluorescence of single cells or particles in a stream.

Data set [21] concerns Plasmodium falciparum. As to the kind of experiment: Antimalarial activity against chloroquine and mefloquine resistant Plasmodium falciparum RF12 assessed as reduction in parasite growth incubated for 72 hrs by [3H]-hypoxanthine incorporation assay. Type of data set: functional, organism-based.
Data set [22] concerns Plasmodium falciparum. Briefly: Antimalarial activity against chloroquine and mefloquine resistant Plasmodium falciparum NF54 assessed as reduction in parasite growth incubated for 72 hrs by [3H]-hypoxanthine incorporation assay. Type of data set: functional, organism-based.
Data set [23] has as its system Plasmodium falciparum. Briefly: Antimalarial activity against MMV006833 resistant Plasmodium falciparum 3D7 harboring START1 N309K mutant assessed as reduction in parasite growth incubated for 72 hrs by LDH assay. Type of data set: functional, organism-based. Conditions: 3D7, 72 h.
Data set [24] relates to Plasmodium falciparum. As to the kind of experiment: Antimalarial activity against MMV-048 resistant Plasmodium falciparum Dd2 harboring PI4K S743T mutant assessed as reduction in parasite growth incubated for 72 hrs by [3H]-hypoxanthine incorporation assay. Type of data set: functional, organism-based.
Data set [25] has as its system Plasmodium falciparum. Briefly: Antimalarial activity against KAF-156 resistant Plasmodium falciparum Dd2 harboring CARL I1139K mutant assessed as reduction in parasite growth incubated for 72 hrs by [3H]-hypoxanthine incorporation assay. Type of data set: functional, organism-based.
Data set [26] relates to Plasmodium falciparum. As to the kind of experiment: Antimalarial activity against MMV006833 resistant Plasmodium falciparum 3D7 assessed as reduction in parasite growth incubated for 72 hrs by LDH assay. Type of data set: functional, organism-based. The settings on record: 3D7, 72 h.
Data set [27] has as its system Plasmodium falciparum. As to the kind of experiment: Antimalarial activity against ELQ-300 resistant Plasmodium falciparum Dd2 harboring Cyt b I22L mutant assessed as reduction in parasite growth incubated for 72 hrs by [3H]-hypoxanthine incorporation assay. Type of data set: functional, organism-based.
Data set [28] relates to Plasmodium falciparum. Briefly: Antimalarial activity against MMV006833 resistant Plasmodium falciparum 3D7 harboring START1 N330K mutant assessed as reduction in parasite growth incubated for 72 hrs by LDH assay. Type of data set: functional, organism-based. Conditions: 3D7, 72 h.
The test system of data set [29] is Plasmodium falciparum. As to the kind of experiment: Antimalarial activity against asexual blood stage Plasmodium falciparum Dd2-B2 assessed as reduction in parasite growth measured for 60 days by flow cytometry. Type of data set: functional. The settings on record: Dd2-B2, 1440 h, time 60 day.
Data set [30] relates to Plasmodium falciparum. Briefly: Antimalarial activity against atovaquone resistant Plasmodium falciparum TM90-C2B assessed as reduction in parasite growth incubated for 72 hrs by [3H]-hypoxanthine incorporation assay. Type of data set: functional, organism-based.
The subject of data set [31] is Plasmodium falciparum. As to the kind of experiment: Antimalarial activity against chloroquine and mefloquine resistant Plasmodium falciparum K1 assessed as reduction in parasite growth incubated for 72 hrs by [3H]-hypoxanthine incorporation assay. Type of data set: functional, organism-based.
Data set [32] deals with Plasmodium falciparum. Briefly: Antimalarial activity against DDD-107498 resistant Plasmodium falciparum Dd2 harboring eEF2 Y86N mutant assessed as reduction in parasite growth incubated for 72 hrs by [3H]-hypoxanthine incorporation assay. Type of data set: functional, organism-based.
Data set [33] has as its system Plasmodium falciparum. Briefly: Antimalarial activity against asexual blood stage Plasmodium falciparum Dd2-F6 assessed as minimum inoculum of resistance at 2.2 times IC50 measured for 35 days by SYBR Green I dye based flow cytometry. Type of data set: functional. The settings on record: time 35 day.
For data set [34], the system named is Plasmodium berghei. Briefly: Antimalarial activity against Plasmodium berghei ANKA infected in mouse assessed as reduction of parasitaemia at 30 mg/kg,po bid administrated for 72 hrs and measured after 24 hrs post last dose by Giemsa staining based microscopic analysis relative to control. Type of data set: functional. Also on record: scale not given: the % may be the effect or the level left. Conditions: time 96 hrs.

Consider `Cc1cc(Nc2ccc(S(F)(F)(F)(F)F)cc2)n2nc(C(C)(F)F)nc2n1` [DSM-265], for which the EC50 in the data set on Plasmodium falciparum [1] was determined as 470 nM; in the data set on Plasmodium falciparum [3] it was 24 nM. Besides, the Activity in the data set with Plasmodium falciparum [2] is 1.6 10^6No_unit.

For `CC(C)(Nc1ccc(Cl)c(S(=O)(=O)N2CCOCC2)c1)C(=O)Nc1cncc(Cl)c1`, the Activity result in [4] and in data set [7] was “Non-Toxic” in each case. Besides, the half-life in data set [5] was 5.9 h. In data set [6], the microsomal CLint at 1 µM is above 462 µL/min/mg. Moreover, in the data set on Plasmodium berghei [8], the result was inactive. In addition, the EC50 in the data set on HepG2 is above 40000 nM; with Plasmodium falciparum [10] it was 15 nM. Also, the deltaH with Plasmodium falciparum [9] was -11.6 kcal/mol. Besides, the Drug uptake result in [11] and in data set [15] was “Active” throughout. Also, the concentration at 0.25 h in data set [12] was around 1200 nM. Further, the equilibrium dissociation constant (Kd) in data set [13] stood at 14 nM. The -TdeltaS in the data set with Plasmodium falciparum [14] came out at 0.8 kcal/mol. The hepatocyte CLint at 1 µM in data set [16] turned out to be 68 µL/min/1e6 cells. Moreover, the logD at 2 h, 7.5 µM in [17] amounted to 3.2. For the same compound, the solubility kinetic at 2 h in data set [18] worked out at 60 µM (≈ 28.4 µg/mL).

Regarding `CC(C)(Nc1ccc(Cl)c(S(=O)(=O)N2CCOCC2)c1)C(=O)Nc1ccc(F)c(Cl)c1`, the concentration giving a half-maximal response (EC50) was 1 nM with Plasmodium falciparum [1]; 1 nM in the data set on Plasmodium falciparum [19]; 1 nM in the data set on Plasmodium falciparum [21]; 2 nM with Plasmodium falciparum [22]; 3200 nM in the data set with Plasmodium falciparum [23]; 1 nM in the data set with Plasmodium falciparum [3]. Further, the EC50 in the data set on Plasmodium falciparum [24] amounted to 1 nM; in the data set with Plasmodium falciparum [25] it was 1 nM; with Plasmodium falciparum [26] it was 4 nM; with HepG2, 31500 nM; in the data set on Plasmodium falciparum [27] it was 1 nM; in the data set on Plasmodium falciparum [28], 2200 nM. In addition, the EC50 turned out to be 5 nM in the data set with Plasmodium falciparum [10], 1 nM in the data set on Plasmodium falciparum [30], 2 nM with Plasmodium falciparum [31] and 1 nM in the data set with Plasmodium falciparum [32]. In addition, the outcome with Plasmodium falciparum [20] was inactive. Further, the microsomal CLint at 1 µM in data set [6] is above 462 µL/min/mg. The EC90 with Plasmodium falciparum [29] was determined as 9.7 nM. The Kd in data set [13] was found to be 10 nM. Besides, the hepatocyte CLint at 1 µM in data set [16] is above 92 µL/min/1e6 cells. In addition, the Activity in the data set on Plasmodium falciparum [33] is 1.9 10^7No_unit. For the same compound, the logD at 2 h, 7.5 µM in data set [17] stood at 3.9. The solubility kinetic at 2 h in data set [18] amounted to 16 µM (≈ 7.85 µg/mL).

Take `C[C@@H]1CC[C@H]2[C@@H](C)C(=O)O[C@@H]3O[C@@]4(C)CC[C@@H]1[C@]32OO4` [ARTEMISININ]: the Activity in the data set with Plasmodium berghei [34] was above 98%.

As for `O=C(CNc1ccc(Cl)c(S(=O)(=O)N2CCOCC2)c1)Nc1ccc(F)c(Cl)c1`, the EC50 in the data set with Plasmodium falciparum [1] was determined as 20 nM; with Plasmodium falciparum [19], 26 nM; with Plasmodium falciparum [21] it was 32 nM; in the data set with Plasmodium falciparum [22] it was 42 nM; in the data set with Plasmodium falciparum [3] it was 54 nM; in the data set with Plasmodium falciparum [24], 28 nM. The concentration for a half-maximal effect (EC50) is 26 nM in the data set on Plasmodium falciparum [25]; above 40000 nM in the data set on HepG2; 24 nM in the data set with Plasmodium falciparum [27]; 80 nM in the data set on Plasmodium falciparum [10]; 31 nM in the data set with Plasmodium falciparum [30]; 48 nM in the data set with Plasmodium falciparum [31]. Further, the EC50 in the data set on Plasmodium falciparum [32] came out at 28 nM. In addition, the microsomal CLint at 1 µM in data set [6] was above 462 µL/min/mg. In data set [16], the hepatocyte CLint at 1 µM was above 92 µL/min/1e6 cells. This compound also displayed a logD at 2 h, 7.5 µM in data set [17] of 2.2. For the same compound, the solubility kinetic at 2 h in data set [18] turned out to be 19 µM (≈ 8.78 µg/mL).

The term EC50 denotes the concentration that produces a half-maximal response. As a reminder, the Kd is the concentration at which binding is half-saturated. One may read the logD as the decadic logarithm of the distribution of all forms, ionised or not, between an organic phase and buffer at a given pH. By EC90 is commonly meant the concentration needed for an effect of 90%.
